{"source": "paper PMC2674329", "about": "(The Journal of steroid biochemistry and molecular biology, 2008)", "assay_type_in_all_cases": "biochemical", "key": {"[1]": {"molecular_target": "T1, human placental cytosolic COMT (Homo sapiens, UniProt P21964)", "T1 sequence (P21964 1-221 isoform P21964-2)": "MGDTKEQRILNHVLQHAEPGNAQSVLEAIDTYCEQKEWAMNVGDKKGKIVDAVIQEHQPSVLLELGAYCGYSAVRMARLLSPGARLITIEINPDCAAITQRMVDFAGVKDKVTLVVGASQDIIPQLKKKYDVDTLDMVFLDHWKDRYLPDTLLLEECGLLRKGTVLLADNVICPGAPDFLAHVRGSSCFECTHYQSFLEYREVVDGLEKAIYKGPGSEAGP", "conditions": "for Km: read-out: KM of the substrate for O-methylation"}, "[2]": {"molecular_target": "T2, human liver cytosolic COMT (Homo sapiens, UniProt P21964)", "T2 sequence (P21964 1-221 isoform P21964-2)": "T1 sequence (P21964 1-221 isoform P21964-2)"}, "[3]": {"molecular_target": "T3, human liver and placental cytosolic COMT (Homo sapiens, UniProt P21964)", "T3 sequence (P21964 1-221 isoform P21964-2)": "T1 sequence (P21964 1-221 isoform P21964-2)"}, "[4]": {"conditions": "range over liver and placental samples (summary)"}}, "note": "Read-outs that look alike come from different tables or passages of the source."}
{"smiles": "C[C@]12CC[C@@H]3c4cc(O)c(O)cc4CC[C@H]3[C@@H]1CC[C@@H]2O", "note": "[2-OH-E2, 2-hydroxyestradiol, reference compound]", "values": [{"measurement": "VMAX of the substrate for O-methylation", "setting": "[1]; HP17C (no inhibitor)", "value": 2274, "unit": "pmol/mg protein/min"}, {"measurement": "VMAX of the substrate for O-methylation", "setting": "[1]; HP18C (no inhibitor)", "value": 4815, "unit": "pmol/mg protein/min"}, {"measurement": "VMAX of the substrate for O-methylation", "setting": "[1]; HP20C (no inhibitor)", "value": 1650, "unit": "pmol/mg protein/min"}, {"measurement": "Km", "setting": "[1]; HP17C (no inhibitor)", "value": 1.3, "unit": "µM"}, {"measurement": "Km", "setting": "[1]; HP18C (no inhibitor)", "value": 1, "unit": "µM"}, {"measurement": "Km", "setting": "[1]; HP20C (no inhibitor)", "value": 0.7, "unit": "µM"}]}
{"smiles": "C[C@]12CC[C@@H]3c4ccc(O)c(O)c4CC[C@H]3[C@@H]1CC[C@@H]2O", "note": "[4-OH-E2, 4-hydroxyestradiol, reference compound]", "values": [{"measurement": "VMAX of the substrate for O-methylation", "setting": "[2]; HL1C (no inhibitor), experiment with 1 μM chlorogenic acid", "value": 6408, "unit": "pmol/mg protein/min"}, {"measurement": "VMAX of the substrate for O-methylation", "setting": "[2]; HL1C (no inhibitor), experiment with 2 μM caffeic acid", "value": 6401, "unit": "pmol/mg protein/min"}, {"measurement": "VMAX of the substrate for O-methylation", "setting": "[2]; HL6C (no inhibitor)", "value": 6310, "unit": "pmol/mg protein/min"}, {"measurement": "Km", "setting": "[2]; read-out: KM of the substrate for O-methylation, HL6C (no inhibitor)", "value": 7.1, "unit": "µM"}, {"measurement": "VMAX of the substrate for O-methylation", "setting": "[1]; HP17C (no inhibitor)", "value": 1827, "unit": "pmol/mg protein/min"}, {"measurement": "VMAX of the substrate for O-methylation", "setting": "[1]; HP18C (no inhibitor)", "value": 1918, "unit": "pmol/mg protein/min"}, {"measurement": "VMAX of the substrate for O-methylation", "setting": "[1]; HP20C (no inhibitor)", "value": 759, "unit": "pmol/mg protein/min"}, {"measurement": "Km", "setting": "[1]; HP17C (no inhibitor)", "value": 3.2, "unit": "µM"}, {"measurement": "Km", "setting": "[1]; HP18C (no inhibitor)", "value": 4.2, "unit": "µM"}, {"measurement": "Km", "setting": "[1]; HP20C (no inhibitor)", "value": 3.5, "unit": "µM"}]}
{"smiles": "O=C(O)/C=C/c1ccc(O)c(O)c1", "note": "[Caffeic acid, caffeic acid]", "values": [{"measurement": "VMAX, 4-OH-E2 as substrate, in presence of inhibitor", "setting": "[1]; HP17C + 2 μM inhibitor, no inhibitor: 1827", "value": 531, "unit": "pmol/mg protein/min"}, {"measurement": "VMAX, 4-OH-E2 as substrate, in presence of inhibitor", "setting": "[1]; HP17C + 0.5 inhibitor (unit of concentration not given), no inhibitor: 1827", "value": 1572, "unit": "pmol/mg protein/min"}, {"measurement": "VMAX, 2-OH-E2 as substrate, in presence of inhibitor", "setting": "[1]; HP17C + 0.5 inhibitor (unit of concentration not given), no inhibitor: 2274", "value": 2078, "unit": "pmol/mg protein/min"}]}
{"smiles": "O=C(/C=C/c1ccc(O)c(O)c1)O[C@@H]1C[C@](O)(C(=O)O)C[C@@H](O)[C@H]1O", "note": "[Chlorogenic acid, chlorogenic acid]", "values": [{"measurement": "VMAX, 4-OH-E2 as substrate, in presence of inhibitor", "setting": "[2]; HL1C + 1 μM inhibitor, no inhibitor: 6408", "value": 2825, "unit": "pmol/mg protein/min"}, {"measurement": "VMAX, 4-OH-E2 as substrate, in presence of inhibitor", "setting": "[2]; HL6C + 2 μM inhibitor, no inhibitor: 6310", "value": 3292, "unit": "pmol/mg protein/min"}, {"measurement": "change of apparent KM value, O-methylation of 4-OH-E2", "setting": "[2]; inhibitor at 1 μM", "value": "slightly increased"}, {"measurement": "decrease of apparent VMAX value, O-methylation of 4-OH-E2", "setting": "[2]; inhibitor at 1 μM", "value": "approximately 50%"}, {"measurement": "mechanism of enzyme inhibition, O-methylation of 4-OH-E2", "setting": "[2]; inhibitor at 1 μM", "value": "primarily a noncompetitive mechanism"}, {"measurement": "VMAX, 4-OH-E2 as substrate, in presence of inhibitor", "setting": "[1]; HP18C + 0.25 μM inhibitor, no inhibitor: 1918", "value": 1480, "unit": "pmol/mg protein/min"}, {"measurement": "VMAX, 2-OH-E2 as substrate, in presence of inhibitor", "setting": "[1]; HP18C + 0.25 μM inhibitor, no inhibitor: 4815", "value": 3960, "unit": "pmol/mg protein/min"}, {"measurement": "VMAX, 4-OH-E2 as substrate, in presence of inhibitor", "setting": "[1]; HP18C + 0.5 μM inhibitor, no inhibitor: 1918", "value": 1146, "unit": "pmol/mg protein/min"}, {"measurement": "VMAX, 2-OH-E2 as substrate, in presence of inhibitor", "setting": "[1]; HP18C + 0.5 μM inhibitor, no inhibitor: 4815", "value": 3648, "unit": "pmol/mg protein/min"}, {"measurement": "VMAX, 4-OH-E2 as substrate, in presence of inhibitor", "setting": "[1]; HP20C + 0.5 μM inhibitor, no inhibitor: 759", "value": 312, "unit": "pmol/mg protein/min"}, {"measurement": "VMAX, 2-OH-E2 as substrate, in presence of inhibitor", "setting": "[1]; HP20C + 0.5 μM inhibitor, no inhibitor: 1650", "value": 1311, "unit": "pmol/mg protein/min"}, {"measurement": "increase of KM value, 2-OH-E2 as a substrate", "setting": "[1]; inhibitor at 0.25 μM", "value": "approximately 2 fold"}, {"measurement": "increase of KM value, 4-OH-E2 as a substrate", "setting": "[1]; inhibitor at 0.25 μM", "value": "approximately 1.2 fold"}, {"measurement": "increase of KM value, 2-OH-E2 as a substrate", "setting": "[1]; inhibitor at 0.5 μM", "value": "~4", "unit": "fold"}, {"measurement": "increase of KM value, 4-OH-E2 as a substrate", "setting": "[1]; inhibitor at 0.5 μM", "value": "approximately 2 fold"}, {"measurement": "decrease of VMAX value, 2-OH-E2 as a substrate", "setting": "[1]; inhibitor at 0.25 and 0.5 μM", "value": "approximately 20%"}, {"measurement": "decrease of VMAX value, 4-OH-E2 as a substrate", "setting": "[1]; inhibitor at 0.25 and 0.5 μM", "value": "approximately 50%"}, {"measurement": "mechanism of enzyme inhibition, O-methylation of 2-OH-E2 and 4-OH-E2", "setting": "[1]; section on human placental cytosolic COMT (sentence prints human liver COMT)", "value": "mixed (competitive plus noncompetitive)"}, {"measurement": "mechanism of inhibition, O-methylation of 2-OH-E2 and 4-OH-E2", "setting": "[3]; human liver and placental COMT", "value": "mixed (competitive plus noncompetitive)"}, {"measurement": "higher inhibition potency for the O-methylation of 4-OH-E2 than for the O-methylation of 2-OH-E2", "setting": "[3]; human liver or placental cytosolic COMT", "value": "1.5 to 7", "unit": "fold"}, {"measurement": "IC50 values for inhibiting the methylation of 2-OH-E2", "setting": "[3]; [4]", "value": "800 to 1400", "unit": "nM"}, {"measurement": "IC50 values for inhibiting the methylation of 4-OH-E2", "setting": "[3]; [4]", "value": "200 to 800", "unit": "nM"}]}
